Entries after “also recorded” stand apart in the source; their conditions may differ. Like-named read-outs stand apart in the source and are kept apart here.
Legend:
Influenza A/Moscow/10/99 = type: cell-based; settings: Citrate Buffer control
[1] = tested on: Influenza B/Guangdong/120/00; type: cell-based; settings: Citrate Buffer control
influenza virus = type: in vivo, ferret; settings: for Mean Difference (I−J), Weight Change separated into pens: pairwise comparison
[2] = recipient ferrets, 8 per group, >2SD rise in temperature

Q: Which results are given for `O=C(O)CC(O)(CC(=O)O)C(=O)O` [Citrate Buffer]?
A: A/Moscow log reductions (Influenza A/Moscow/10/99; 1 minute incubation): 1.00 −log10 TCID50; Residual A/Moscow titer (Influenza A/Moscow/10/99; 1 minute incubation): 1.80 −log10 TCID50; A/Moscow log reductions (Influenza A/Moscow/10/99; 2 minute incubation): 1.00 −log10 TCID50; Residual A/Moscow titer (Influenza A/Moscow/10/99; 2 minute incubation): 1.80 −log10 TCID50; A/Moscow log reductions (Influenza A/Moscow/10/99; 5 minute incubation): 2.80 −log10 TCID50; Residual A/Moscow titer (Influenza A/Moscow/10/99; 5 minute incubation): 0.00 −log10 TCID50; B/Guangdong log reductions ([1]; 1 minute incubation): 1.80 −log10 TCID50; Residual B/Guangdong titer ([1]; 1 minute incubation): 0.00 −log10 TCID50; B/Guangdong log reductions ([1]; 2 minute incubation): 1.80 −log10 TCID50; Residual B/Guangdong titer ([1]; 2 minute incubation): 0.00 −log10 TCID50; B/Guangdong log reductions ([1]; 5 minute incubation): 1.80 −log10 TCID50; Residual B/Guangdong titer ([1]; 5 minute incubation): 0.00 −log10 TCID50

Q: What does the source list for `CCOC(=O)C1=C[C@@H](OC(CC)CC)[C@H](NC(C)=O)[C@@H](N)C1` [Tamiflu ™, oseltamivir phosphate]?
A: No. of Ferrets per pen with Fever (>2SD rise), mild febrile illness (influenza virus; four recipient ferrets per pen, pens a and b): 2; X^2 analysis of fever (2SD rise), p PBS versus treatment (influenza virus; in vivo): 0.106; X^2 analysis of fever (3SD rise), p PBS versus treatment (influenza virus; in vivo): 0.106; seroconversion of recipient ferrets (influenza virus; in vivo): did not seroconvert; also recorded: no seroconversion; Mean Difference (I−J), Weight Change separated into pens (influenza virus; (I) group PBS minus (J) treatment group, recipient ferrets, weight loss peak to trough as percentage of day 0 baseline weight): −1.880; weight loss, p PBS versus treatment (influenza virus; recipient ferrets): 0.003; % within Group No., Fever => 2SD rise from baseline: No (influenza virus; [2]): 50%; % within Group No., Fever => 2SD rise from baseline: yes (influenza virus; [2]): 50%; Count of ferrets, Fever => 2SD rise from baseline: No (influenza virus; [2]): 4; Count of ferrets, Fever => 2SD rise from baseline: yes (influenza virus; [2]): 4; Weight Change separated into pens, Mean (influenza virus; recipient ferrets, peak to trough as a percentage of the baseline weight on day 0): −.980%; No. of ferrets per group with Fever (>2SD rise), mild febrile illness (influenza virus; two pens per group): 4; No. of ferrets per group with Fever (>3SD rise) (influenza virus; two pens per group): 1

Q: How did the “Mean Difference (I−J), Weight Change separated into pens” value (influenza virus; (I) treatment group minus (J) 25% horseradish) turn out when `CCOC(=O)C1=C[C@@H](OC(CC)CC)[C@H](NC(C)=O)[C@@H](N)C1` [Tamiflu] was run?
A: Its value is “.161”.

Q: And the “Mean Difference (I−J), Weight Change separated into pens” value (influenza virus; (I) treatment group minus (J) 50% horseradish)?
A: The value was “.497”.

Q: And the “Mean Difference (I−J), Weight Change separated into pens” value (influenza virus; (I) treatment group minus (J) 100% Horseradish)?
A: Its value is “.251”.

Q: What about the “Mean Difference (I−J), Weight Change separated into pens” value (influenza virus; (I) treatment group minus (J) PBS, recipient ferrets) of the same compound?
A: The value was −1.880.

From patent publication US7166435B2 (priority 2001, dated 2007)
